Laboratory results as given in the supplement of paper PMC10307832.

Legend:
Assay in all cases: relative viability (nuclei count vs DMSO), 5 days (fraction); higher = more cells survive
IU1-47 + Palbociclib = compound: CC1=CC(=C(N1C2=CC=C(C=C2)Cl)C)C(=O)CN3CCCCC3 [IU1-47] + CC(=O)c1c(C)c2cnc(Nc3ccc(N4CCNCC4)cn3)nc2n(C2CCCC2)c1=O [Palbociclib] (partner 0.5 µM)
Procedure, shortened: (§1)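 Five library-drug doses in √10 steps were combined with a fixed anchor-drug dose, or a single drug was given alone, by pin tool to lung cancer cell lines in 1536-well plates the day after seeding. Nuclei were stained and counted after 5 days. Relative viability is the nuclei count in treated wells over that in vehicle wells, taken as the median of duplicate plates.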

FG-4592 + Palbociclib = compound: Cc1nc(C(=O)NCC(=O)O)c(O)c2ccc(Oc3ccccc3)cc12 [FG-4592] + CC(=O)c1c(C)c2cnc(Nc3ccc(N4CCNCC4)cn3)nc2n(C2CCCC2)c1=O [Palbociclib] (partner 0.5 µM)
Procedure, shortened: as §1

IU1-47 + AZD7762 = compound: CC1=CC(=C(N1C2=CC=C(C=C2)Cl)C)C(=O)CN3CCCCC3 [IU1-47] + NC(=O)Nc1cc(-c2cccc(F)c2)sc1C(=O)N[C@H]1CCCNC1 [AZD7762] (partner 0.2 µM)
Procedure, shortened: as §1

IU1-47 + Luminespib = compound: CC1=CC(=C(N1C2=CC=C(C=C2)Cl)C)C(=O)CN3CCCCC3 [IU1-47] + CCNC(=O)c1noc(-c2cc(C(C)C)c(O)cc2O)c1-c1ccc(CN2CCOCC2)cc1 [Luminespib] (partner 0.01 µM)
Procedure, shortened: as §1

Cell Line	relative viability (IU1-47 + Palbociclib; first compound 0.08 µM)	relative viability (IU1-47 + Palbociclib; first compound 0.253 µM)	relative viability (IU1-47 + Palbociclib; first compound 0.8 µM)	relative viability (IU1-47 + Palbociclib; first compound 2.53 µM)	relative viability (IU1-47 + Palbociclib; first compound 8 µM)	relative viability (FG-4592 + Palbociclib; first compound 0.08 µM)	relative viability (FG-4592 + Palbociclib; first compound 0.253 µM)	relative viability (FG-4592 + Palbociclib; first compound 0.8 µM)	relative viability (FG-4592 + Palbociclib; first compound 2.53 µM)	relative viability (FG-4592 + Palbociclib; first compound 8 µM)	relative viability (IU1-47 + AZD7762; first compound 0.08 µM)	relative viability (IU1-47 + AZD7762; first compound 0.253 µM)	relative viability (IU1-47 + AZD7762; first compound 0.8 µM)	relative viability (IU1-47 + AZD7762; first compound 2.53 µM)	relative viability (IU1-47 + AZD7762; first compound 8 µM)	relative viability (IU1-47 + Luminespib; first compound 0.08 µM)	relative viability (IU1-47 + Luminespib; first compound 0.253 µM)	relative viability (IU1-47 + Luminespib; first compound 0.8 µM)	relative viability (IU1-47 + Luminespib; first compound 8 µM)	relative viability (IU1-47 + Luminespib; first compound 2.53 µM)
BEN	0.54	0.452	0.448	0.497	0.512	0.433	0.44	0.463	0.454	0.475	0.677	0.638	0.761	0.535	0.739	0.362	0.459	0.414	0.344	–
NCI-H1666	0.695	0.652	0.695	0.682	0.63	0.698	0.554	0.658	0.673	0.689	0.866	0.86	0.854	0.803	0.815	1.08	1.02	0.938	0.854	0.942
LC-2-ad	0.498	0.509	0.484	–	0.488	0.473	0.456	0.515	0.549	0.476	0.851	0.84	0.866	–	0.857	1.23	1.04	0.883	1.15	0.766
ChaGo-K-1	0.96	0.915	1.05	0.897	0.819	0.9	0.878	1.01	0.914	0.958	0.934	1.01	0.91	0.91	0.954	0.623	0.618	0.713	0.703	0.671
NCI-H1975	0.586	0.547	0.868	0.611	0.364	0.511	0.534	0.53	0.437	0.379	0.698	0.766	0.728	0.797	0.756	0.142	0.198	0.199	0.37	0.228
NCI-H1993	0.854	0.698	0.659	0.558	0.513	0.689	0.515	–	0.691	0.563	0.682	0.763	0.769	0.781	0.85	0.857	0.888	0.804	0.716	0.868
RERF-LC-KJ	1.32	1.18	1.04	1.16	1.07	1.02	0.89	0.937	1.05	1.04	1.42	1.17	1.18	0.6	0.823	1.22	1.3	1.34	1.39	1.24
NCI-H23	0.532	–	0.431	0.511	0.499	0.628	0.45	0.501	0.547	0.453	0.229	–	0.227	0.18	0.243	0.206	0.237	0.203	0.209	0.229
